Source: publication PMC11501026, “L-Arginine and asymmetric dimethylarginine (ADMA) transport across the mouse blood-brain and blood-CSF barriers: Evidence of saturable transport at both interfaces and CNS to blood efflux” (PLOS ONE, 2024)
Values joined by “and” are separate entries in the source; they are usually repeats but may differ in a detail not shown here. Equal entries are not always repeated. Structures can show the parent of a compound that is named as a salt.

Assay: in situ brain/choroid plexus perfusion: CNS uptake of [^3H]-arginine, [^3H]-ADMA and [^14C]-sucrose (multiple-time and single-time uptake analysis)
Settings: for uptake into caudate nucleus / uptake into choroid plexus / uptake into frontal cortex / uptake into occipital cortex / Kp at 30 min, 62.5 nM: 30 mins; for Kp at […] / Kp at 20 min, 62.5 nM / Kp at 30 min, 62.5 nM / Kp at 10 min, 62.5 nM / Kp at […], 62.5 nM / Kp at 10 min: male, BALB/c, mouse; for Kp at […] / Kp at […], 62.5 nM: 2.5 mins
[1] = CONTROL, 10 mins, Balb/c ♂, 5ml/min, mean
[2] = [3H] ADMA + [14C] Sucrose, Balb/c ♂, 5ml/min, individual mice
[3] = [3H] ADMA + [14C] Sucrose, Balb/c ♂, 5ml/min, mean
[4] = CSF, Difference (ADMA minus Sucrose), 5ml/min, mean
[5] = CSF, [3H] ADMA and [14C] Sucrose uptake, 5ml/min, mean
[6] = caudate nucleus, Difference (ADMA minus Sucrose), 5ml/min, mean
[7] = caudate nucleus, [3H] ADMA and [14C] Sucrose uptake, 5ml/min, mean
[8] = cerebellum, Difference (ADMA minus Sucrose), 5ml/min, mean
[9] = cerebellum, [3H] ADMA and [14C] Sucrose uptake, 5ml/min, mean
[10] = choroid plexus, Difference (ADMA minus Sucrose), 5ml/min, mean
[11] = choroid plexus, [3H] ADMA and [14C] Sucrose uptake, 5ml/min, mean
[12] = frontal cortex, Difference (ADMA minus Sucrose), 5ml/min, mean
[13] = frontal cortex, [3H] ADMA and [14C] Sucrose uptake, 5ml/min, mean
[14] = hippocampus, Difference (ADMA minus Sucrose), 5ml/min, mean
[15] = hippocampus, [3H] ADMA and [14C] Sucrose uptake, 5ml/min, mean
[16] = hypothalamus, Difference (ADMA minus Sucrose), 5ml/min, mean
[17] = hypothalamus, [3H] ADMA and [14C] Sucrose uptake, 5ml/min, individual mouse
[18] = hypothalamus, [3H] ADMA and [14C] Sucrose uptake, 5ml/min, mean
[19] = occipital cortex, Difference (ADMA minus Sucrose), 5ml/min, mean
[20] = occipital cortex, [3H] ADMA and [14C] Sucrose uptake, 5ml/min, mean
[21] = pineal gland, Difference (ADMA minus Sucrose), 5ml/min, mean
[22] = pineal gland, [3H] ADMA and [14C] Sucrose uptake, 5ml/min, mean
[23] = pituitary gland, Difference (ADMA minus Sucrose), 5ml/min, mean
[24] = pituitary gland, [3H] ADMA and [14C] Sucrose uptake, 5ml/min, mean
[25] = pons, Difference (ADMA minus Sucrose), 5ml/min, mean
[26] = pons, [3H] ADMA and [14C] Sucrose uptake, 5ml/min, mean
[27] = thalamus, Difference (ADMA minus Sucrose), 5ml/min, mean
[28] = thalamus, [3H] ADMA and [14C] Sucrose uptake, 5ml/min, individual mouse
[29] = thalamus, [3H] ADMA and [14C] Sucrose uptake, 5ml/min, mean

## CN(C)C(N)=NCCC[C@H](N)C(=O)O [ADMA, N^G,N^G-dimethylarginine dihydrochloride]
[1]
  Difference (ADMA minus Sucrose), thalamus: 0.21
  [3H] ADMA and [14C] Sucrose uptake, caudate nucleus: 0.2609
  [3H] ADMA and [14C] Sucrose uptake, cerebellum: 0.1856
  [3H] ADMA and [14C] Sucrose uptake, choroid plexus: 2.881
  [3H] ADMA and [14C] Sucrose uptake, hippocampus: 0.2336
  [3H] ADMA and [14C] Sucrose uptake, hypothalamus: 0.341
  [3H] ADMA and [14C] Sucrose uptake, occipital cortex: 0.2471
  [3H] ADMA and [14C] Sucrose uptake, pituitary gland: 1.982
  [3H] ADMA and [14C] Sucrose uptake, pons: 0.2825
  [3H] ADMA and [14C] Sucrose uptake, thalamus: 0.2291
CONTROL, 10 mins, Balb/c ♂, 5ml/min, mean, in mL/100 g
  [3H] ADMA and [14C] Sucrose uptake, frontal cortex: 0.273
[2]
  uptake into caudate nucleus: 0.09268 and 0.2487 and 0.1281 and 0.07499 and 0.1274
  uptake into choroid plexus: 0.5413 and 0.9894 and 0.4672 and 0.3444 and 0.47
  uptake into frontal cortex: 0.1003 and 0.2556 and 0.1339 and 0.07655 and 0.1326
  uptake into occipital cortex: 0.1057 and 0.2389 and 0.1237 and 0.07486 and 0.1517
[3]
  uptake into caudate nucleus: 0.1344
  uptake into choroid plexus: 0.5624
  uptake into frontal cortex: 0.1398
  uptake into occipital cortex: 0.139
[4]
  Kp at […]: 0.034
  Kp at 20 min, 62.5 nM: 0.225
  Kp at 30 min, 62.5 nM: 0.349
CSF, Difference (ADMA minus Sucrose), 5ml/min, individual mouse
  Kp at 20 min, 62.5 nM: 0.197
CSF, Difference (ADMA minus Sucrose), CONTROL, 10 mins, 5ml/min, mean
  Kp at 10 min, 62.5 nM: 0.267
[5]
  Kp at […]: 0.122
  Kp at 20 min, 62.5 nM: 0.433
CSF, [3H] ADMA and [14C] Sucrose uptake, CONTROL, 10 mins, 5ml/min, mean
  Kp at 10 min, 62.5 nM: 0.273
CSF, uptake into CSF, [3H] ADMA + [14C] Sucrose, Balb/c ♂, 5ml/min, mean
  Kp at 30 min, 62.5 nM: 0.721
[6]
  Kp at […], 62.5 nM: 0.0936
  Kp at 20 min, 62.5 nM: 0.256
[7]
  Kp at […], 62.5 nM: 0.107
  Kp at 20 min, 62.5 nM: 0.28
[8]
  Kp at […]: 0.0947
  Kp at 20 min, 62.5 nM: 0.273
[9]
  Kp at […]: 0.112
  Kp at 20 min, 62.5 nM: 0.3
[10]
  Kp at […], 62.5 nM: 0.671
  Kp at 20 min, 62.5 nM: 1.92
Choroid plexus, [3H] ADMA and [14C] Sucrose uptake, 5ml/min, individual mouse
  Kp at […], 62.5 nM: 0.645
[11]
  Kp at […], 62.5 nM: 0.855
  Kp at 20 min, 62.5 nM: 2.24
Frontal cortex, Difference (ADMA minus Sucrose), 5ml/min, individual mouse
  Kp at […], 62.5 nM: 0.0723
[12]
  Kp at […], 62.5 nM: 0.0986
  Kp at 20 min, 62.5 nM: 0.276
Frontal cortex, [3H] ADMA and [14C] Sucrose uptake, 5ml/min, individual mouse
  Kp at […], 62.5 nM: 0.0847
[13]
  Kp at […], 62.5 nM: 0.113
  Kp at 20 min, 62.5 nM: 0.302
hippocampus, Difference (ADMA minus Sucrose), 5ml/min, individual mouse
  Kp at […], 62.5 nM: 0.0843
[14]
  Kp at […], 62.5 nM: 0.1
  Kp at 20 min, 62.5 nM: 0.254
hippocampus, [3H] ADMA and [14C] Sucrose uptake, 5ml/min, individual mouse
  Kp at […], 62.5 nM: 0.0898
[15]
  Kp at […], 62.5 nM: 0.109
  Kp at 20 min, 62.5 nM: 0.273
hypothalamus, Difference (ADMA minus Sucrose), 5ml/min, individual mouse
  Kp at […]: 0.0965
[16]
  Kp at […]: 0.0993
  Kp at 20 min, 62.5 nM: 0.364
[17]
  Kp at […]: 0.114
  Kp at 20 min, 62.5 nM: 0.38
[18]
  Kp at […]: 0.127
  Kp at 20 min, 62.5 nM: 0.416
Occipital cortex, Difference (ADMA minus Sucrose), 5ml/min, individual mouse
  Kp at […], 62.5 nM: 0.0744
[19]
  Kp at […], 62.5 nM: 0.086
  Kp at 20 min, 62.5 nM: 0.268
Occipital cortex, [3H] ADMA and [14C] Sucrose uptake, 5ml/min, individual mouse
  Kp at […], 62.5 nM: 0.083
[20]
  Kp at […], 62.5 nM: 0.0969
  Kp at 20 min, 62.5 nM: 0.293
[21]
  Kp at […], 62.5 nM: 0.235
  Kp at 20 min, 62.5 nM: 0.986
  Kp at 30 min, 62.5 nM: 0.416
Pineal gland, Difference (ADMA minus Sucrose), CONTROL, 10 mins, 5ml/min, mean
  Kp at 10 min: 1.94
[22]
  Kp at […], 62.5 nM: 0.527
  Kp at 20 min, 62.5 nM: 1.32
Pineal gland, [3H] ADMA and [14C] Sucrose uptake, CONTROL, 10 mins, 5ml/min, mean
  Kp at 10 min: 2.56
Pineal gland, uptake into pineal gland, [3H] ADMA + [14C] Sucrose, Balb/c ♂, 5ml/min, mean
  Kp at 30 min, 62.5 nM: 0.614
[23]
  Kp at […]: 0.585
  Kp at 20 min, 62.5 nM: 1.19
[24]
  Kp at […]: 0.761
  Kp at 20 min, 62.5 nM: 1.4
[25]
  Kp at […]: 0.0907
  Kp at 20 min, 62.5 nM: 0.306
pons, [3H] ADMA and [14C] Sucrose uptake, 5ml/min, individual mouse
  Kp at […]: 0.0924
[26]
  Kp at […]: 0.117
  Kp at 20 min, 62.5 nM: 0.347
thalamus, Difference (ADMA minus Sucrose), 5ml/min, individual mouse
  Kp at […]: 0.0741
[27]
  Kp at […]: 0.0969
  Kp at 20 min, 62.5 nM: 0.282
[28]
  Kp at […]: 0.0799
  Kp at 20 min, 62.5 nM: 0.331
[29]
  Kp at […]: 0.108
  Kp at 20 min, 62.5 nM: 0.312
multiple-time uptake studies, loss of linearity
  CNS-to-blood efflux: presence of CNS-to-blood efflux
